In this test the target is T1, monoamine oxidase B (MAO-B) (Homo sapiens, UniProt P27338).
T1 construct: gene MAOB; Human recombinant MAO-B (Sigma, M7441)
T1 sequence (P27338 2-520): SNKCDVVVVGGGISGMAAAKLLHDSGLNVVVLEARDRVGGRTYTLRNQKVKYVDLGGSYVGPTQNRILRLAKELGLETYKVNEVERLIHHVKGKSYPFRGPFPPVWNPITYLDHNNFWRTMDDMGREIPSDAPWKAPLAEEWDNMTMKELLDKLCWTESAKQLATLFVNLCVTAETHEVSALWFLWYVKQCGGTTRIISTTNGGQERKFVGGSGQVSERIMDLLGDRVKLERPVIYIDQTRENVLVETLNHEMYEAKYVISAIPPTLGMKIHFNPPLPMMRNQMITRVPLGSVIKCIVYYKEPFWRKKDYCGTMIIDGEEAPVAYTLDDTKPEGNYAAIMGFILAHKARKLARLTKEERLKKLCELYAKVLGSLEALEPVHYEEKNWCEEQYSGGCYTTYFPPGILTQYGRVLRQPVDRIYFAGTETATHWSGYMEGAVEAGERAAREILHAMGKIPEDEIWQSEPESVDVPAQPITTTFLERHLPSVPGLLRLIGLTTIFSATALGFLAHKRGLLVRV
The experiment in a line: in vitro MAO-B enzyme activity assay with recombinant human enzyme. The test is classed as biochemical.

Like-named read-outs stand apart in the source and are kept apart here.

As to `O=c1cc(-c2ccccc2)oc2cc(O)c(O)c(O)c12` [baicalein], the IC50 amounted to 21 µM.
Turning to `O=C(O)[C@H]1O[C@@H](Oc2cc3oc(-c4ccccc4)cc(=O)c3c(O)c2O)[C@H](O)[C@@H](O)[C@@H]1O` [baicalin], the IC50 (read-out: IC50) came to 6.26 µM.
On to `COc1c(O)cc(O)c2c(=O)cc(-c3ccccc3)oc12` [wogonin], for which the IC50 is 79.2 µM.

Usually IC50 stands for the midpoint of a concentration-inhibition curve.

These data come from PMC11076983, “Baicalin and baicalein from Scutellaria baicalensis Georgi alleviate aberrant neuronal suppression mediated by GABA from reactive astrocytes” (CNS Neuroscience & Therapeutics, 2024).
